7 molecules from patent US6372297B1, “Wood preservative oxathiazines” (Uniroyal Chemical Company, Inc., priority 1993, dated 2002) can be followed below.

In brackets after ≈: the same amount, converted by molar mass. Read-outs that look alike come from different tables or passages of the source.

For assay [1], the system named is blue-stain fungi and molds. The experiment in a line: Activity against blue-stain fungi and molds in a stick test (threshold concentrations). As to conditions: beech sticks, 22° C., 90% relative humidity; for Threshold concentration (ppm), A. niger, score 0 / Threshold concentration (ppm), Aureobasidium, score 0 / Threshold concentration (ppm), Sclerophoma, score 0 / Threshold concentration (ppm), Trichoderma, score 0: minimum concentration to obtain score 0; for Threshold concentration (ppm), A. niger, score 1-2 / Threshold concentration (ppm), Aureobasidium, score 1-2 / Threshold concentration (ppm), Sclerophoma, score 1-2 / Threshold concentration (ppm), Trichoderma, score 1-2: minimum concentration to obtain score 1-2. How it is done:
Representative compounds of this invention were dissolved in 50% ethanol. Each compound was then diluted serially using 50% ethanol. […] After three (3) hours, the solutions containing the test compounds were poured off and the treated sticks were allowed to dry in a sterile laminar air flow. Each treated stick was then placed in a Petri dish which had been previously seeded with inoculum. Two drops of a test fungal or spore suspension were pipetted onto the upper surface of each treated stick. The Petri dishes containing the treated sticks were incubated at 22° C. and 90% relative humidity. The treated sticks were evaluated after there was sufficient growth of fungus on control sticks (i.e., untreated sticks) incubated in the same manner. The following score system was used: 0: Stick free of fungal/mold growth 1: Traces of fungal growth on the stick 2: Slight growth (5 to 25% of the surface covered with fungal growth) 3: Moderate growth (25 to 50% covered with fungal growth) 4. Vigorous to maximum fungal growth (more than 50% growth) […]

Assay [2] relates to molds and blue-stain fungi. In words: In vitro activity against molds and blue-stain fungi, poison plate assay (MIC). As to conditions: malt extract agar, complete inhibition. The format is cell-based. How it is done:
The effect of the representative compounds on the growth of certain molds and blue-strain fungi were determined using a poison plate assay according to the following procedure: The solutions of the representative compounds prepared above were further diluted with sterile water to desired concentrations and poured into Petri dishes. Malt extract agar medium was then added aseptically to the Petri dishes and to Petri dishes containing no compound (controls). The Petri dishes were then shaken to provide a uniform distribution of the agar medium. Each Petri dish containing compound and each control Petri dish, was then inoculated with a fungus and incubated for a period of time sufficient to permit complete growth of the fungus in the respective control Petri dish. The Petri dishes containing compound were then examined to determine the amount of inhibition of fungi for each concentration of compound tested.

As for `CC1CS(=O)(=O)C(c2cccs2)=NO1` (stereo not drawn) [Compound 51, 5,6-dihydro-6-methyl-3-(2-thienyl)-1,4,2-oxathiazine-4,4, dioxide], in assay [1], the “Threshold concentration (ppm), A. niger, score 0” value is reported as 500 ppm; the “Threshold concentration (ppm), A. niger, score 1-2” value is listed as 250-500 ppm; the “Threshold concentration (ppm), Aureobasidium, score 0” value is on record as more than 1000 ppm; the “Threshold concentration (ppm), Aureobasidium, score 1-2” value is recorded as 250-500 ppm. In addition, in assay [1], the “Threshold concentration (ppm), Sclerophoma, score 0” value is 100 ppm; the “Threshold concentration (ppm), Sclerophoma, score 1-2” value is reported as 50-100 ppm; the “Threshold concentration (ppm), Trichoderma, score 0” value is recorded as 1000 ppm; the “Threshold concentration (ppm), Trichoderma, score 1-2” value is given as 500-1000 ppm.
As to `CCOC(=O)c1ccc(C2=NOCC[S+]2[O-])s1` (stereo not drawn) [Compound 54], in assay [1], the “Threshold concentration (ppm), A. niger, score 0” value is listed as 500 ppm; the “Threshold concentration (ppm), A. niger, score 1-2” value is listed as less than 250 ppm; the “Threshold concentration (ppm), Aureobasidium, score 0” value is 500 ppm; the “Threshold concentration (ppm), Aureobasidium, score 1-2” value was 250-500 ppm. In addition, in assay [1], the “Threshold concentration (ppm), Sclerophoma, score 0” value turned out to be 100 ppm; the “Threshold concentration (ppm), Sclerophoma, score 1-2” value was less than 50 ppm; the “Threshold concentration (ppm), Trichoderma, score 0” value came out at 5000 ppm; the “Threshold concentration (ppm), Trichoderma, score 1-2” value is 500-1000 ppm.
Take `N#Cc1ccc(C2=NOCC[S+]2[O-])s1` (stereo not drawn) [Compound 57]: in assay [1], the “Threshold concentration (ppm), A. niger, score 0” value is on record as 500 ppm; the “Threshold concentration (ppm), A. niger, score 1-2” value is on record as less than 250 ppm; the “Threshold concentration (ppm), Aureobasidium, score 0” value is listed as more than 1000 ppm; the “Threshold concentration (ppm), Aureobasidium, score 1-2” value was 250-500 ppm. In assay [1], the “Threshold concentration (ppm), Sclerophoma, score 0” value came to 100 ppm; the “Threshold concentration (ppm), Sclerophoma, score 1-2” value is given as less than 50 ppm; the “Threshold concentration (ppm), Trichoderma, score 0” value stood at 1000 ppm; the “Threshold concentration (ppm), Trichoderma, score 1-2” value is on record as 500-1000 ppm. In addition, the “MIC (ppm) against A. amstelodami” value in assay [2] (A. amstelodami) turned out to be 10 ppm. For the same molecule, in assay [2] (A. niger), the “MIC (ppm) against A. niger” value was found to be 10 ppm. The “MIC (ppm) against A. pullulans” value in assay [2] (A. pullulans) was more than 25 ppm. The “MIC (ppm) against A. versicolor” value in assay [2] (A. versicolor) turned out to be 10 ppm. Moreover, in assay [2] (C. cladosporioides), the “MIC (ppm) against C. cladosporioides” value turned out to be 25 ppm. Besides, the “MIC (ppm) against C. pilifera” value in assay [2] (C. pilifera) worked out at 10 ppm. Besides, in assay [2] (F. solani), the “MIC (ppm) against F. solani” value was determined as 25 ppm. In addition, the “MIC (ppm) against G. candidum” value in assay [2] (G. candidum) turned out to be 25 ppm. Moreover, in assay [2] (P. purpurogenum), the “MIC (ppm) against P. purpurogenum” value is listed as 10 ppm. The “MIC (ppm) against P. variotii” value in assay [2] (P. variotii) is on record as 25 ppm. For the same molecule, in assay [2] (P. violacea), the “MIC (ppm) against P. violacea” value is reported as 25 ppm. For the same molecule, the “MIC (ppm) against S. atra” value in assay [2] (S. atra) is recorded as 10 ppm. Also, the “MIC (ppm) against S. entoxylina” value in assay [2] (S. entoxylina) was 10 ppm. The “MIC (ppm) against T. viride” value in assay [2] (T. viride) is given as more than 25 ppm. Moreover, in assay [2] (U. atrum), the “MIC (ppm) against U. atrum” value is recorded as 25 ppm.
Take `N#Cc1ccc(C2=NOCCS2(=O)=O)s1` [Compound 58]: in assay [1], the “Threshold concentration (ppm), A. niger, score 0” value was 500 ppm; the “Threshold concentration (ppm), A. niger, score 1-2” value was less than 250 ppm; the “Threshold concentration (ppm), Aureobasidium, score 0” value was more than 1000 ppm; the “Threshold concentration (ppm), Aureobasidium, score 1-2” value is 500-1000 ppm. In assay [1], the “Threshold concentration (ppm), Sclerophoma, score 0” value is reported as 100 ppm; the “Threshold concentration (ppm), Sclerophoma, score 1-2” value is less than 50 ppm; the “Threshold concentration (ppm), Trichoderma, score 0” value is recorded as 5000 ppm; the “Threshold concentration (ppm), Trichoderma, score 1-2” value is 1000-2500 ppm. Also, the “MIC (ppm) against A. amstelodami” value in assay [2] (A. amstelodami) worked out at 5 ppm. In assay [2] (A. niger), the “MIC (ppm) against A. niger” value was 5 ppm. For the same molecule, the “MIC (ppm) against A. pullulans” value in assay [2] (A. pullulans) came out at 25 ppm. The “MIC (ppm) against A. versicolor” value in assay [2] (A. versicolor) is listed as 5 ppm. Also, in assay [2] (C. cladosporioides), the “MIC (ppm) against C. cladosporioides” value came out at 10 ppm. Besides, in assay [2] (C. pilifera), the “MIC (ppm) against C. pilifera” value is 5 ppm. Further, in assay [2] (F. solani), the “MIC (ppm) against F. solani” value was 10 ppm. In addition, the “MIC (ppm) against G. candidum” value in assay [2] (G. candidum) is on record as 25 ppm. In assay [2] (P. purpurogenum), the “MIC (ppm) against P. purpurogenum” value is 10 ppm. Moreover, the “MIC (ppm) against P. variotii” value in assay [2] (P. variotii) was found to be 25 ppm. Moreover, the “MIC (ppm) against P. violacea” value in assay [2] (P. violacea) worked out at 25 ppm. Also, the “MIC (ppm) against S. atra” value in assay [2] (S. atra) is on record as 5 ppm. Moreover, in assay [2] (S. entoxylina), the “MIC (ppm) against S. entoxylina” value is listed as 5 ppm. Further, the “MIC (ppm) against T. viride” value in assay [2] (T. viride) is listed as 25 ppm. In addition, in assay [2] (U. atrum), the “MIC (ppm) against U. atrum” value worked out at 10 ppm.
Consider `[O-][S+]1CCON=C1c1nc2ccccc2o1` (stereo not drawn) [Compound 81], for which, in assay [1], the “Threshold concentration (ppm), A. niger, score 0” value was 500 ppm; the “Threshold concentration (ppm), A. niger, score 1-2” value is 250-500 ppm; the “Threshold concentration (ppm), Aureobasidium, score 0” value is recorded as more than 1000 ppm; the “Threshold concentration (ppm), Aureobasidium, score 1-2” value is on record as 250-500 ppm. Further, in assay [1], the “Threshold concentration (ppm), Sclerophoma, score 0” value was determined as 250 ppm; the “Threshold concentration (ppm), Sclerophoma, score 1-2” value was less than 50 ppm; the “Threshold concentration (ppm), Trichoderma, score 0” value is listed as 2500 ppm; the “Threshold concentration (ppm), Trichoderma, score 1-2” value was 500-1000 ppm.
Turning to `O=S1(=O)CCON=C1c1nc2ccccc2s1` [Compound 83, 5,6-dihydro-3-(2-benzothiazolyl)-1,4,2-oxathiazine 4,4-dioxide], the MIC in assay [2] (A. amstelodami, read-out: MIC (ppm) against A. amstelodami) is more than 25 µg/mL; in assay [2] (Aspergillus niger, A. niger, read-out: MIC (ppm) against A. niger), more than 25 µg/mL; in assay [2] (Aspergillus versicolor, A. versicolor, read-out: MIC (ppm) against A. versicolor), 25 µg/mL (≈ 93.2 µM); in assay [2] (Aureobasidium pullulans, A. pullulans, read-out: MIC (ppm) against A. pullulans), more than 25 µg/mL; in assay [2] (C. pilifera, read-out: MIC (ppm) against C. pilifera) it was 10 µg/mL (≈ 37.3 µM); in assay [2] (Cladosporium cladosporioides, C. cladosporioides, read-out: MIC (ppm) against C. cladosporioides), more than 25 µg/mL. For the same molecule, the MIC in assay [2] (Fusarium solani, F. solani, read-out: MIC (ppm) against F. solani) is more than 25 µg/mL; in assay [2] (Geotrichum candidum, G. candidum, read-out: MIC (ppm) against G. candidum) it was more than 25 µg/mL; in assay [2] (P. purpurogenum, read-out: MIC (ppm) against P. purpurogenum) it was more than 25 µg/mL; in assay [2] (P. violacea, read-out: MIC (ppm) against P. violacea) it was more than 25 µg/mL; in assay [2] (Paecilomyces variotii, P. variotii, read-out: MIC (ppm) against P. variotii), more than 25 µg/mL; in assay [2] (S. atra, read-out: MIC (ppm) against S. atra) it was 5 µg/mL (≈ 18.6 µM). The MIC in assay [2] (S. entoxylina, read-out: MIC (ppm) against S. entoxylina) is 10 µg/mL (≈ 37.3 µM); in assay [2] (Trichoderma viride, T. viride, read-out: MIC (ppm) against T. viride) it was more than 25 µg/mL; in assay [2] (U. atrum, read-out: MIC (ppm) against U. atrum) it was more than 25 µg/mL.
Consider `Cc1ccc2oc(C3=NOCC[S+]3[O-])nc2c1` (stereo not drawn) [Compound 89], for which, in assay [1], the “Threshold concentration (ppm), A. niger, score 0” value came out at 500 ppm; the “Threshold concentration (ppm), A. niger, score 1-2” value is reported as 250-500 ppm; the “Threshold concentration (ppm), Aureobasidium, score 0” value is listed as more than 1000 ppm; the “Threshold concentration (ppm), Aureobasidium, score 1-2” value is given as 100-250 ppm. In assay [1], the “Threshold concentration (ppm), Sclerophoma, score 0” value is on record as 250 ppm; the “Threshold concentration (ppm), Sclerophoma, score 1-2” value is listed as less than 50 ppm; the “Threshold concentration (ppm), Trichoderma, score 0” value turned out to be 2500 ppm; the “Threshold concentration (ppm), Trichoderma, score 1-2” value was 1000-2500 ppm.
